Experimental data from patent EP2657347A1, “Electrochemical competitive assay and use thereof” (Université Paris Diderot - Paris 7, priority 2012, dated 2013).
Each block holds one molecule with its values, some of them ahead of it.

How the values were obtained:
[1] = system: D-Apt49; assay: Redox-mediated catalytic cyclic voltammetry titration with aptamer; assay type: binding; conditions: specificity / enantioselectivity test, Figure 2B
Experimental: (§1) All experiments were performed in 5 mM Tris buffer (pH 7) containing 10 mM MgCl2 and 50 mM NaCl (Recognition Buffer, RBr). The L-Tym concentration is always 5 µM. For cyclic voltammetric experiments, 1 µM [Os(bpy)3]2+ with 5 µM 1-Tym in a droplet of 50 µL RBr was used. So, before each experiment, the droplet is shaking with a micropipette. This procedure is repeated until we obtain a reproducible and stable voltammogram. Mother solution of Fc-1-Tym was a […] solution in DMF. This product is conserved at 4°C and seal with parafilm. Before each experiment, this solution is diluted 10 times in stabilized DMF, such as 0.2 µL in 50 µL of RBr leads to 5 µM of Fc-1-Tym.
(§2) Cyclic voltammetry measurements were performed with an AUTOLAB PGSTAT 12 potentiostat/galvanostat controlled by computer, and the data were acquired using GPES 4.9007 software (EcoChemie, The Netherlands). Small self-contained electrochemical cells made of 3 screen-printed electrodes on a flat substrate were used for all experiments. The electrodes were printed using a DEK model-65 screen-printer. Working electrodes were 4 mm diameter screen-printed carbon electrodes prepared using a commercial carbon ink (Electrodag PF-470 A) deposited on the top of an underlying Ag layer (Electrodag 418 SS). Counter electrode was obtained using an Ag ink (Electrodag 418 SS).
(§3) Before experiments, the screen-printed carbon electrodes were coated with bovine serum albumin (BSA) by immersing the electrodes in a 1 mg/mL BSA solution for 10 minutes at room temperature. The BSA-modified electrodes were next cycled between 0 V and 0.8 V at v = 0.05 V/s, until of the capacitive background current in cyclic voltammetry was stablized.
The 49-mer aptamer we have used (see here above) is a sequence similar to the one that was previously selected by Vianini et al and successfully applied to chromatographic- and fluorescence-based L-Tym assays. Since direct electrochemical oxidation of phenolic compounds generally leads to electrode passivation and thus to poorly reproducible anodic peak current in cyclic voltammetry (CV), the electrochemical detection of L-Tym was performed by redox-mediated catalytic oxidation of the phenolic function. For such a purpose, we have used the one-electron redox mediator couple [Os^III/II(bpy)3]^3+/2+ which, according to its relatively high standard potential (E^0=+0.58 V vs. Ag/AgCl), is capable to efficiently catalyze the oxidation of phenolic compounds. [drawing 51]
The linear dependence of the peak current with both the square root of scan rate, v, and L-Tym concentration, indicates conditions of total catalysis for which the catalytic peak current response, ip, can be expressed by eq 1. ip = 0.609nFSCT^0 sqrt(DT)sqrt(fv/RT) [formula] where n is the number of electron involved in the catalytic reaction, F the Faraday constant, S the electrode area, C^0T the bulk concentration of L-Tym, and DT the diffusion coefficient of L-Tym. After aptamer addition, the binding reaction (eq 2) is rapidly set at equilibrium. [drawing 53] with Kd the dissociation constant. On the basis of a classical law of action mass and mass balance (i.e., C^0T = CT + CRT, with CT and CRT the free and receptor-bound target concentrations), and assuming a 1:1 binding stoichiometry, the free (χƒ) mole fraction of target in the bulk solution can thus be estimated by eq 3. χf = (CT)/(CT^0) = 1-(Kd + CT^0 + CR^0 -sqrt(((Kd+CT^0+CR^0))^2 -4CT^0 CR^0))/(2CT^0) [formula]
Here, C^0R is the total concentration of the aptamer receptor added to the solution. Under the assumption of a slow interconversion of free and bound target on the time scale of CV experiments, the catalytic peak current can thus be expressed by a linear combination of the catalytic currents related to the free and bound target through eq 4. ip = 0.609nFSCT^0 sqrt(fv/RT)[χfsqrt(DT)+(1-χf)sqrt(DRT)] [formula] where DT and DRT are the diffusion coefficients of the free and receptor-bound target, respectively. […]

[2] = biological target: L-Apt49; assay: Redox-mediated catalytic cyclic voltammetry titration with mirror-image aptamer; assay type: binding; conditions: nonlinear fit of eq 5; catalytic peak current, Tris buffer
Experimental: as §1
Cyclic voltammetry measurements were performed with an AUTOLAB PGSTAT 12 potentiostat/galvanostat controlled by computer, and the data were acquired using GPES 4.9007 software (EcoChemie, The Netherlands). Small self-contained electrochemical cells made of 3 screen-printed electrodes on a flat substrate were used for all experiments. […]
From the combination of eqs 3 and 5 and knowledge of the catalytic peak currents determined both in the absence of aptamer (ip^0) [formula] and at extrapolated infinite aptamer concentration (ip^(∞)), [formula] we can write eq 5 which allows to predict the normalized peak current response decreases as a function of aptamer and target concentrations. […]

[3] = system: D-Apt49; assay: Homogeneous electrochemical competitive binding assay in Tris buffer
Experimental: as §1, §2, §3
The competitive assay can be described by the two equilibrated binding reactions 6a and 6b, in which Fc-L-Tym is L-tyrosinamide labeled by a redox-active ferrocene group. The ferrocenyl label was here incorporated on the ―OH position of the phenolic group (Scheme 1). Note that under this condition the catalytic oxidation of the phenolic residue is no more possible and only the ferrocene labeled molecule can be detected. [drawing 63] [drawing 64] with Kd = (CTCR)/CRT [formula] Kd^(*) = (CT^(*)CR)/CRT^(*) [formula] where CR is the concentration of free aptamer receptor. […] Ideally, the two binding constants should be as close as possible (Kd ≈ K^*d). The value of K^*d was determined by monitoring in CV the reversible response of 5 µM Fc-L-Tym solution as a function of increasing concentrations of D-Apt49.
The competitive binding assay was achieved from two separate solutions containing a starting mixture of 5 µM Fc- L-Tym and 3 µM or 10 µM D-Apt49, and to which an increasing amount of L-Tym was added. […]

[4] = system: L-Apt49; assay: Cyclic voltammetry of ferrocene-labeled target with mirror-image aptamer; assay type: binding; conditions: not shown
[5] = biological target: D-Apt49; assay: Homogeneous electrochemical competitive binding assay in 20% fetal bovine serum
Experimental: • Figure 1: Electrochemically competitive assay of the invention. Left-hand column: before the addition of the sample: a first redox signal is measured. Right-hand column: after the addition of a sample containing the target to be detected or measured: a second redox signal is measured. (A) Homogeneous electrochemically competitive assay: the presence of the target disrupts the complex formed between the oligonucleotide ligand and the redox-labeled target. […] (B) Heterologous electrochemically competitive assay, wherein the oligonucleotide ligand is attached to a solid phase: the presence of the target disrupts the complex formed between the oligonucleotide ligand and the redox-labeled target, thereby inducing a better detection of the redox labeled-target. […] (C) Heterologous electrochemically competitive assay, wherein the oligonucleotide ligand is attached to the electrode: the presence of the target disrupts the complex formed between the oligonucleotide ligand and the redox-labeled target, thereby reducing the detection of the redox labeled-target. […] (f) CV of 1 µM [Os(bpy)3]^2+ alone. […] Error bars: standard deviations from 3 measurements. Plain lines: fits of eq 5 to the experimental data. • Figure 3: (A) CVs (v = 0.05 V s^-1) of 5 mM Tris buffer (pH 7.0) containing 50 mM NaCl, 10 mM Mg^2+, 5 µM Fc-L-Tym and (a) 0 µM, (b) 1 µM, (c) 2 µM, (d) 3 µM, (e) 4 µM (f) 5 µM (g) 7.5 µM (h) 10 µM (i) 12.5 µM and (j) 15 µM of D-Apt49. (B) Normalized anodic peak current response as a function of aptamer concentration. Each data is the average of 3 measurements. Error bars are standard deviations. Plain line: fit of eq 5 to the experimental data. • Figure 4: Competitive binding curves performed in (A) 5 mM Tris buffer (pH 7 + 50 mM NaCl + 10 mM MgCl2) or (B) 20% fetal bovine serum (simply diluted with a 4 mM MgCl2 aqueous solution) as a function of (●, ★, ▼, Δ) L-Tym or (○) D-Tym concentration. (*) Assay of 5 µM L-Tym in the presence of 5 mM D-Tym. The Fc-L-Tym concentration was always C^0T*= 5 µM, whereas the D-Apt49 concentrations were C^0R: (●) 3, (★,○,*) 10, (▼) 40 and (Δ) 100 µM.
The enantiospecificity of the assay was next characterized using the same methodology but for solutions containing the D-Tym enantiomer. […] To evaluate the enantiospecific performance of the aptamer, the assay of trace amount of L-Tym in the presence of a large excess of D-Tym was examined and, as reported in Figure 4A, it has been found possible to detect as low as 5 µM L-Tym in the presence of 5 mM D-Tym. This remarkable performance means that as low as 0.1 % of an enantiomeric impurity in a nonracemic mixture can be assayed in a very short analysis time (<1 min). This is competitive with conventional separation techniques, and one order of magnitude lower than the 1% currently attainable by NMR. Finally, the ability to perform an assay under realistic biological conditions was examined. For such purpose, homogenous electrochemical competitive binding assays of 5-fold diluted fetal bovin serum samples spiked with known amounts of […] were then performed (Figure 4B).

[6] = biological target: D-Apt49; assay: Cyclic voltammetry titration of ferrocene-labeled target with aptamer; assay type: binding; conditions: 5 µM Fc-L-Tym, increasing D-Apt49, Tris buffer pH 7.0; fit of eq 5; also used as predetermined value in competitive fits
Experimental: as §1
Cyclic voltammetry measurements were performed with an AUTOLAB PGSTAT 12 potentiostat/galvanostat controlled by computer, and the data were acquired using GPES 4.9007 software (EcoChemie, The Netherlands). […]
The competitive assay can be described by the two equilibrated binding reactions 6a and 6b, in which Fc-L-Tym is L-tyrosinamide labeled by a redox-active ferrocene group. […] Note that under this condition the catalytic oxidation of the phenolic residue is no more possible and only the ferrocene labeled molecule can be detected. […] The value of K^*d was determined by monitoring in CV the reversible response of 5 µM Fc-L-Tym solution as a function of increasing concentrations of D-Apt49. […]

Kd [2]: 3.8 ± 0.7 µM
displacement of Fc-L-Tym from D-Apt49 ([3]; 0-100 µM concentration range, 10 µM D-Apt49, Tris buffer): no displacement
response change ([3]; concentrations as high as few millimolar): without significant response change
Structure (SMILES): NC(=O)[C@H](N)Cc1ccc(O)cc1 [D-Tym, d-tyrosinamide]
catalytic current response upon the addition of D-Apta49 [1]: no significant catalytic current response decrease

Kd ([5]; 5-fold diluted fetal bovine serum, average of the fitted curves, read-out: K^*d (average value)): 75 µM
Kd ([5]; 20% fetal bovine serum, 5 µM Fc-L-Tym, 40 µM D-Apt49, read-out: K^*d): 75 µM
Kd ([5]; 20% fetal bovine serum, 5 µM Fc-L-Tym, 100 µM D-Apt49, read-out: K^*d): 75 µM
Kd [6]: 1.2 ± 0.4 µM
Structure (SMILES): NC(=O)[C@@H](N)Cc1ccc(O[c-]2cccc2)cc1.[Fe+2].c1cc[cH-]c1 [Fc-L-Tym, O-Ferrocenyltyrosynamide]
current change in the presence of L-Apt49 [4]: absence of current change

Structure (SMILES): N[C@@H](Cc1ccc(O)cc1)C(=O)O [L-tyrosine]
catalytic current response upon the addition of D-Apta49 [1]: no significant catalytic current response decrease

Structure (SMILES): CC(=O)Nc1ccc(O)cc1 [paracetamol]
catalytic current response upon the addition of D-Apta49 [1]: no significant catalytic current response decrease
